Assay results from the kinase profiling compilation of Christmann-Franck et al. (2016).

Assays:
Test in all cases: KINOMEscan competition binding
Conditions in all cases: compound 10.0 µM
DCLK3 (human) = DCLK3 (human) (UniProt Q9C098)
MAP3K15 (human) = MAP3K15 (human) (UniProt Q6ZN16)
HIPK2 (human) = HIPK2 (human) (UniProt Q9H2X6)
EPHB1 (human) = EPHB1 (human) (UniProt P54762)
ADCK4 (human) = ADCK4 (human) (UniProt Q96D53)
MAP3K1 (human) = MAP3K1 (human) (UniProt Q13233)
NEK5 (human) = NEK5 (human) (UniProt Q6P3R8)
CHEK1 (human) = CHEK1 (human) (UniProt O14757)
CDKL2 (human) = CDKL2 (human) (UniProt Q92772)
PIK3CD (human) = PIK3CD (human) (UniProt O00329)
MAPK4 (human) = MAPK4 (human) (UniProt P31152)
MAPK7 (human) = MAPK7 (human) (UniProt Q13164)
ICK (human) = ICK (human) (UniProt Q9UPZ9)
PIM2 (human) = PIM2 (human) (UniProt Q9P1W9)
MAP2K4 (human) = MAP2K4 (human) (UniProt P45985)
DCLK2 (human) = DCLK2 (human) (UniProt Q8N568)
TAOK1 (human) = TAOK1 (human) (UniProt Q7L7X3)
PAK3 (human) = PAK3 (human) (UniProt O75914)
TAOK2 (human) = TAOK2 (human) (UniProt Q9UL54)
MAST1 (human) = MAST1 (human) (UniProt Q9Y2H9)
MYO3A (human) = MYO3A (human) (UniProt Q8NEV4)
PAK2 (human) = PAK2 (human) (UniProt Q13177)
Sequence of PAK2 (human) (Q13177 whole entry, looked up): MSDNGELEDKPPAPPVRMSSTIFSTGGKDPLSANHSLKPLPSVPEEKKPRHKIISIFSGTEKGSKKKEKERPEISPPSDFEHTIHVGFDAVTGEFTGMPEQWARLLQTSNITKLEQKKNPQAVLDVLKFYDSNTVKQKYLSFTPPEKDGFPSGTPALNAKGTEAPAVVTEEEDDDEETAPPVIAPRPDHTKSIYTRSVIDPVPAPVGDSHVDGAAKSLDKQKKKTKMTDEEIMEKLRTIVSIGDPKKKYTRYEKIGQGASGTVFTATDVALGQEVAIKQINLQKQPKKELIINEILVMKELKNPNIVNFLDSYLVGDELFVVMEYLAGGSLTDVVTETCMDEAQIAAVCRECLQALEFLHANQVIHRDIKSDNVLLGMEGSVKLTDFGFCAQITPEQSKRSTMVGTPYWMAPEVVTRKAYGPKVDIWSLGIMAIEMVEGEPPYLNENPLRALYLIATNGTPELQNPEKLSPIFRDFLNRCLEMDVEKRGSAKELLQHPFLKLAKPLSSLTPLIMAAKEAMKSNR

EPHB3 (human) = EPHB3 (human) (UniProt P54753)
Sequence of EPHB3 (human) (P54753 whole entry, looked up): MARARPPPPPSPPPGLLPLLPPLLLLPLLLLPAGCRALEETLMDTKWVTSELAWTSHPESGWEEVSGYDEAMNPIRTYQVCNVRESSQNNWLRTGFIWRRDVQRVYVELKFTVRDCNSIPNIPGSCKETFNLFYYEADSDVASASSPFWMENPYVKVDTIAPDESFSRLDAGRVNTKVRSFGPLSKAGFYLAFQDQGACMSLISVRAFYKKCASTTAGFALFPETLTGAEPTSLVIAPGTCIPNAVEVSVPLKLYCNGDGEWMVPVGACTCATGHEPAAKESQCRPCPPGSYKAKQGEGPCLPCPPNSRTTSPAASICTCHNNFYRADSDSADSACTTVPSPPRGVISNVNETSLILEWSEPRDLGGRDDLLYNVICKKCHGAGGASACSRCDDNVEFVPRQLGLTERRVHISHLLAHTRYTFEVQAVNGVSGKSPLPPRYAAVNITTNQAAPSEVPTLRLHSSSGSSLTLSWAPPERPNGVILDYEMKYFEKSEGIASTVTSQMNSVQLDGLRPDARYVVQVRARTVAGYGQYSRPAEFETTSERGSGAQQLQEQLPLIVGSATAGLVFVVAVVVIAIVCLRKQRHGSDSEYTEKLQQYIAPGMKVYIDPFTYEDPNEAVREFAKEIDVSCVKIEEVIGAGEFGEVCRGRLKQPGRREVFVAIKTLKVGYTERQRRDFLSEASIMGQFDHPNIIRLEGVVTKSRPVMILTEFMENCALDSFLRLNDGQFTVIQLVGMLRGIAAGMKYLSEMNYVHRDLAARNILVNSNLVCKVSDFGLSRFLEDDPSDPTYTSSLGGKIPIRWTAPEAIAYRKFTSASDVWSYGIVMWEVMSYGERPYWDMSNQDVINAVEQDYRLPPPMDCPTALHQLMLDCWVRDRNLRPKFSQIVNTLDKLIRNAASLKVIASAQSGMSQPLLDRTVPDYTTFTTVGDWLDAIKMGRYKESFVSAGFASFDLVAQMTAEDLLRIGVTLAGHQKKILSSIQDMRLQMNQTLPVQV

CDK17 (human) = CDK17 (human) (UniProt Q00537)
Sequence of CDK17 (human) (Q00537 whole entry, looked up): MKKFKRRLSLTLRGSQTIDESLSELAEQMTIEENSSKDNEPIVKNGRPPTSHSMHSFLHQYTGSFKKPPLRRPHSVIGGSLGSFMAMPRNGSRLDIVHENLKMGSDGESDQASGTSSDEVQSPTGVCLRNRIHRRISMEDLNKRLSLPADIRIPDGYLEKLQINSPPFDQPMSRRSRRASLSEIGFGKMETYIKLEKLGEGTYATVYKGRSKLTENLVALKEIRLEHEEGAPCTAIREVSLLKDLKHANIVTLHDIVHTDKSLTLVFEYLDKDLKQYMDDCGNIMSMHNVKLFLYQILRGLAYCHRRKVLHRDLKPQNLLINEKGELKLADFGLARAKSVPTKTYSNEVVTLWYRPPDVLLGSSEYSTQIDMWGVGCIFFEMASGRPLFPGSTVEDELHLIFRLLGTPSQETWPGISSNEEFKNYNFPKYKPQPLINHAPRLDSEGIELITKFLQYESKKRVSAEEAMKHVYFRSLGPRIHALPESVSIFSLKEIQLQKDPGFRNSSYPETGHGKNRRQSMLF

SRPK2 (human) = SRPK2 (human) (UniProt P78362)
Sequence of SRPK2 (human) (P78362 whole entry, looked up): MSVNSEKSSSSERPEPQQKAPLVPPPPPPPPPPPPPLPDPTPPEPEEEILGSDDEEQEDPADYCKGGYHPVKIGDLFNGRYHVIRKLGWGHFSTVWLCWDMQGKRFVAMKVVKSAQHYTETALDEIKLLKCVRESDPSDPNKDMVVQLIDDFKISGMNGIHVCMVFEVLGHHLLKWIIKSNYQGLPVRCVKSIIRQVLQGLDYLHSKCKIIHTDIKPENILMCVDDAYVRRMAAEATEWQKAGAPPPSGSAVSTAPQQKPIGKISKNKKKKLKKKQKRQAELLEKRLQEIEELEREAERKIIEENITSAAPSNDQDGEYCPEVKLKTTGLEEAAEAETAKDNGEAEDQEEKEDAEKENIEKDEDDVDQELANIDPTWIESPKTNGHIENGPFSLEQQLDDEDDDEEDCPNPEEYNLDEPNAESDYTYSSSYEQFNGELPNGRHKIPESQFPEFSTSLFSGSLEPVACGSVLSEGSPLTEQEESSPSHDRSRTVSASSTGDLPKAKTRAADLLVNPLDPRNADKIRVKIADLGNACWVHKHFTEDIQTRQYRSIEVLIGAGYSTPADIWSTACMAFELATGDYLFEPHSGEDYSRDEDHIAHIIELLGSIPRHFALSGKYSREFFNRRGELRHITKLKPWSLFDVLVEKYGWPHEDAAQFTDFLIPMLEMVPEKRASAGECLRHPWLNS

PRKCE (human) = PRKCE (human) (UniProt Q02156)
MARK4 (human) = MARK4 (human) (UniProt Q96L34)
Sequence of MARK4 (human) (Q96L34 whole entry, looked up): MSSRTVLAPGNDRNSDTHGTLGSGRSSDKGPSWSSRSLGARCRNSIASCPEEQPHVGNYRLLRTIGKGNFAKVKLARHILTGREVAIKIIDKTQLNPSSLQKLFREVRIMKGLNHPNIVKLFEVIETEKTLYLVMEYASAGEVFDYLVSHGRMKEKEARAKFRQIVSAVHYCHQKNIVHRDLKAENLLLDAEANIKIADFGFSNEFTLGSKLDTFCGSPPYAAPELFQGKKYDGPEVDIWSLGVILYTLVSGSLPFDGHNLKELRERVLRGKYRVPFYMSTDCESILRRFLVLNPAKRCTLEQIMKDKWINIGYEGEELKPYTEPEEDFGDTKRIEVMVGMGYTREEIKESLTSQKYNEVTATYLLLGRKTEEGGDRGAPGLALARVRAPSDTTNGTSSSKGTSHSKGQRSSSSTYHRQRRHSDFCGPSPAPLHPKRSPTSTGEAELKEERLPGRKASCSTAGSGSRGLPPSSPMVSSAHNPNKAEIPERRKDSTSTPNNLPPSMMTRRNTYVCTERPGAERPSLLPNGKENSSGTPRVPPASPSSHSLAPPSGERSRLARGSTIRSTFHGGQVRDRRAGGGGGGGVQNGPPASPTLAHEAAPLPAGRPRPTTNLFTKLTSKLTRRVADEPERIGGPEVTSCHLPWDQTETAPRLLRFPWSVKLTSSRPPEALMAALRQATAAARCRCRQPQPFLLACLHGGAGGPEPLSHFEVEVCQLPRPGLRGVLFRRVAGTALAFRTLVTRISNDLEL

EIF2AK1 (human) = EIF2AK1 (human) (UniProt Q9BQI3)
HIPK4 (human) = HIPK4 (human) (UniProt Q8NE63)
RPS6KA6 KD2 (human) = RPS6KA6 KD2 (human) (UniProt Q9UK32)
EPHA3 (human) = EPHA3 (human) (UniProt P29320)
DAPK1 (human) = DAPK1 (human) (UniProt P53355)
LYN (human) = LYN (human) (UniProt P07948)
Sequence of LYN (human) (P07948 whole entry, looked up): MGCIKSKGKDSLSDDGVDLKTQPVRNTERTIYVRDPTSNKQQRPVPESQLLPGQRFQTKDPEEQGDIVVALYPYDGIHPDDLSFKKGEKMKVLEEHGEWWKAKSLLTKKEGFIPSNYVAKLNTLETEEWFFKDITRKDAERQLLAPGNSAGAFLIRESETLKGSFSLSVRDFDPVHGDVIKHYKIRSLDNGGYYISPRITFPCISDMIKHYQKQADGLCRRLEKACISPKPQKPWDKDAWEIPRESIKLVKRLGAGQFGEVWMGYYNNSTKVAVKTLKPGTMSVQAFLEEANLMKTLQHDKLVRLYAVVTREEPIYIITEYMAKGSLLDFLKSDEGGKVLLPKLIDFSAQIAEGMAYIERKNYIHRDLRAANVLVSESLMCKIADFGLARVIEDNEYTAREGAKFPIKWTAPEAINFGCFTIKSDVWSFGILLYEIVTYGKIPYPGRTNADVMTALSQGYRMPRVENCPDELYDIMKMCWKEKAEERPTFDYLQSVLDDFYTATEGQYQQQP

NEK9 (human) = NEK9 (human) (UniProt Q8TD19)
GRK4 (human) = GRK4 (human) (UniProt P32298)
CSNK1A1L (human) = CSNK1A1L (human) (UniProt Q8N752)
Sequence of CSNK1A1L (human) (Q8N752 whole entry, looked up): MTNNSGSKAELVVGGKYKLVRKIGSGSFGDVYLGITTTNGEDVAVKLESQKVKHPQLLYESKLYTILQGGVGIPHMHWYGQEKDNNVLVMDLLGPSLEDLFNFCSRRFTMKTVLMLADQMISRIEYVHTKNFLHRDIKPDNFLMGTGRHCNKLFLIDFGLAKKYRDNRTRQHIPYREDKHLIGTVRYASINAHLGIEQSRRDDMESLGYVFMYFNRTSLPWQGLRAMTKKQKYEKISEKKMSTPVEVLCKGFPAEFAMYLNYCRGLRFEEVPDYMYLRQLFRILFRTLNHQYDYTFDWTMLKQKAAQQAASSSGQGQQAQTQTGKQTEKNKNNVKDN

TRPM6 (human) = TRPM6 (human) (UniProt Q9BX84)
CSNK2A1 (human) = CSNK2A1 (human) (UniProt P68400)
CAMK2B (human) = CAMK2B (human) (UniProt Q13554)
PIP4K2C (human) = PIP4K2C (human) (UniProt Q8TBX8)

Sequence of DCLK3 (human) (Q9C098 whole entry, looked up): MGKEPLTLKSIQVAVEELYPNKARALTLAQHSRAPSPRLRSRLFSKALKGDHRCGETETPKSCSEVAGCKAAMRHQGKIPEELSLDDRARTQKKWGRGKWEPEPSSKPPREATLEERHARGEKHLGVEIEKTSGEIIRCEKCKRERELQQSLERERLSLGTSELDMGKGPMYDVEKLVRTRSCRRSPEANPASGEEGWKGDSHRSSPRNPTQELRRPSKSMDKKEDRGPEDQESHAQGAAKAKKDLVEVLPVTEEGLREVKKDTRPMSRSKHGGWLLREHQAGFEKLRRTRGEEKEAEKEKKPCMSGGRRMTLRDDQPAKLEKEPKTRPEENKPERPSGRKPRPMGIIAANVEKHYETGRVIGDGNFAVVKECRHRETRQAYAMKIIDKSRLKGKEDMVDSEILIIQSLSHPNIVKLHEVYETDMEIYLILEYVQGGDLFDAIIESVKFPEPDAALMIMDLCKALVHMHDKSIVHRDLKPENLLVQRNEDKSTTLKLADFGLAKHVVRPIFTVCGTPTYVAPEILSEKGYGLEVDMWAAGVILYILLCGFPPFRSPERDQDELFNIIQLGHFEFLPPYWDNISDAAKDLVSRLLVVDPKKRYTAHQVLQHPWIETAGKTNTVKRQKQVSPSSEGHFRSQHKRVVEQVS

Row | Compound | kinase still bound, per cent of control (DCLK3 (human)) | kinase still bound, per cent of control (MAP3K15 (human)) | kinase still bound, per cent of control (HIPK2 (human)) | kinase still bound, per cent of control (EPHB1 (human)) | kinase still bound, per cent of control (ADCK4 (human)) | kinase still bound, per cent of control (NEK5 (human)) | kinase still bound, per cent of control (CDKL2 (human)) | kinase still bound, per cent of control (PIK3CD (human)) | kinase still bound, per cent of control (MAPK4 (human)) | kinase still bound, per cent of control (MAPK7 (human)) | kinase still bound, per cent of control (ICK (human)) | kinase still bound, per cent of control (PIM2 (human)) | kinase still bound, per cent of control (MAP2K4 (human)) | kinase still bound, per cent of control (DCLK2 (human)) | kinase still bound, per cent of control (TAOK1 (human)) | kinase still bound, per cent of control (PAK3 (human)) | kinase still bound, per cent of control (MAST1 (human)) | kinase still bound, per cent of control (MYO3A (human)) | kinase still bound, per cent of control (PAK2 (human)) | kinase still bound, per cent of control (EPHB3 (human)) | other results
1 | CCc1nc(-c2cccc(C)c2)c(-c2ccnc(NC(=O)c3ccccc3)c2)s1 | 90% | 100% | 100% | 83% | 2.2% | 100% | 80% | 100% | 90% | 98% | 100% | 82% | 95% | 98% | 72% | 82% | 100% | 60% | 85% | 81% | kinase still bound, per cent of control (MAP3K1 (human)): 90%; kinase still bound, per cent of control (CHEK1 (human)): 77%; kinase still bound, per cent of control (TAOK2 (human)): 86%; kinase still bound, per cent of control (CDK17 (human)): 99%; kinase still bound, per cent of control (SRPK2 (human)): 73%; kinase still bound, per cent of control (PRKCE (human)): 87%; kinase still bound, per cent of control (MARK4 (human)): 100%; kinase still bound, per cent of control (EIF2AK1 (human)): 100%; kinase still bound, per cent of control (HIPK4 (human)): 97%; kinase still bound, per cent of control (RPS6KA6 KD2 (human)): 4.3%; kinase still bound, per cent of control (EPHA3 (human)): 69%; kinase still bound, per cent of control (DAPK1 (human)): 72%; kinase still bound, per cent of control (LYN (human)): 54%; kinase still bound, per cent of control (NEK9 (human)): 100%; kinase still bound, per cent of control (GRK4 (human)): 100%; kinase still bound, per cent of control (CSNK1A1L (human)): 1.3%; kinase still bound, per cent of control (TRPM6 (human)): 100%; kinase still bound, per cent of control (CSNK2A1 (human)): 100%
2 | CCOc1cc(N2CCC(O)CC2)ccc1Nc1ncc2c(n1)N(C)c1ccccc1C(=O)N2C | 100% | 100% | 100% | 100% | 100% | 100% | 100% | 100% | 100% | 0% | 100% | 100% | 100% | 0.65% | 100% | 100% | 100% | 100% | 100% | 100% | kinase still bound, per cent of control (MAP3K1 (human)): 100%; kinase still bound, per cent of control (CHEK1 (human)): 100%; kinase still bound, per cent of control (CDK17 (human)): 100%; kinase still bound, per cent of control (SRPK2 (human)): 100%; kinase still bound, per cent of control (PRKCE (human)): 100%; kinase still bound, per cent of control (MARK4 (human)): 100%; kinase still bound, per cent of control (HIPK4 (human)): 100%; kinase still bound, per cent of control (CAMK2B (human)): 100%; kinase still bound, per cent of control (RPS6KA6 KD2 (human)): 31%; kinase still bound, per cent of control (EPHA3 (human)): 100%; kinase still bound, per cent of control (DAPK1 (human)): 100%; kinase still bound, per cent of control (LYN (human)): 100%; kinase still bound, per cent of control (NEK9 (human)): 100%; kinase still bound, per cent of control (GRK4 (human)): 100%; kinase still bound, per cent of control (CSNK1A1L (human)): 100%; kinase still bound, per cent of control (CSNK2A1 (human)): 100%
3 | CCN(CCO)CCCOc1ccc2c(Nc3cc(CC(=O)Nc4cccc(F)c4)[nH]n3)ncnc2c1 | 86% | 100% | 31% | 98% | 83% | 100% | 18% | 88% | 100% | 87% | 74% | 100% | 100% | 100% | 59% | 57% | 90% | 81% | 100% | 100% | kinase still bound, per cent of control (TAOK2 (human)): 98%; kinase still bound, per cent of control (CDK17 (human)): 73%; kinase still bound, per cent of control (SRPK2 (human)): 92%; kinase still bound, per cent of control (PRKCE (human)): 100%; kinase still bound, per cent of control (MARK4 (human)): 100%; kinase still bound, per cent of control (EIF2AK1 (human)): 5.2%; kinase still bound, per cent of control (HIPK4 (human)): 4.5%; kinase still bound, per cent of control (CAMK2B (human)): 84%; kinase still bound, per cent of control (RPS6KA6 KD2 (human)): 64%; kinase still bound, per cent of control (EPHA3 (human)): 62%; kinase still bound, per cent of control (DAPK1 (human)): 80%; kinase still bound, per cent of control (LYN (human)): 18%; kinase still bound, per cent of control (NEK9 (human)): 100%; kinase still bound, per cent of control (GRK4 (human)): 100%; kinase still bound, per cent of control (CSNK1A1L (human)): 99%; kinase still bound, per cent of control (PIP4K2C (human)): 51%; kinase still bound, per cent of control (TRPM6 (human)): 100%; kinase still bound, per cent of control (CSNK2A1 (human)): 84%
